Results on one compound are retold here after patent US9540691B2, “Assays and methods for selecting a treatment regimen for a subject with depression” (THE GENERAL HOSPITAL CORPORATION, priority 2011, dated 2017).

In the test the test system is patients with major depressive disorder (MDD) resistant to treatment with SSRIs. The source says:
Using the sequential parallel design […] For those randomly assigned to the placebo/placebo sequence, both responders and non-responders to placebo during the first phase (n=25) remain on placebo during the second phase. […] Data from the previous double-blind, placebo-controlled study (Trial 1) can be pooled into the instant study (Trial 2) to provide a more accurate estimate of the placebo effect size, with a weighted average from the two Phases 1 (one from Trial 1 and one from Trial 2) and two Phases 2 (one from Trial 1 and one from Trial 2).
Once patients agree to participate in the study by signing the informed consent document, a full medical and psychiatric history is taken and a physical examination is performed. Screen rating scales are performed. […] The double-blind treatment lasts 60 days, during which patients are seen every 10 days (Visits 1 to 6 of Phase 1—See Table 4 below). Subjects are assigned randomization numbers in consecutive order. The randomization list is provided by a computer-generated random-number list and is maintained by the research pharmacist. In addition, the presence of any side effect or adverse event is carefully documented with the SAFTEE-SI [54]. Reasons for premature discontinuation, including intolerable side effects, are recorded.
All patients are asked to take one tablet of blinded study medication in the morning, in addition to their stable dose of ongoing SSRI treatment. […] Therefore, for patients randomly assigned to the placebo/placebo sequence, the tablets of study medication are placebo during both phases of the study.
The primary efficacy measure can include the change in 17-item Hamilton Rating Scale for Depression (HAM-D-17) score. […] A remission is, for example, defined as a HAM-D-17 score less than 8 at endpoint. Secondary measures of efficacy can include change in CGI-severity, with “clinical response defined” as CGI-S of 1 or 2 at endpoint. Patients with a CGI-I score greater than 5 at any post baseline visit or a 50 percent or greater worsening of depressive symptoms from baseline to that visit are discontinued from the study. Subjects are also discontinued from the study with any emergence of suicidality, homicidality, mania, or psychosis. Additional exemplary instruments that can be administered according to the study schedule include the following: • (1) Structured Clinical Interview for DSM-IV: The SCID-I/P, administered by the clinician, proceeds by modules to diagnose the different Axis I disorders. Questions are asked exactly as written, and each is based on the individual criteria from DSM-IV. Answers are generally rated on a scale of 1-3 (1=doubtful, 2=probable, 3=definite), and, based on the number of positive answers, a diagnosis is determined by a clinician. While the entire SCID-UP is administered at screen, the mood module is administered at each follow up visit. • (2) The MGH Antidepressant Treatment History Questionnaire (MGH-ATR): The MGH-ATR provides specific criteria for the adequate dose and adequate length of a trial for it to be considered a failure, thus allowing clinicians to systematically collect data aimed at assessing the degree of treatment-resistance of the current major depressive episode. • (3) The 28-item Hamilton Depression Scale (HAM-D-28): This version allows scoring of the HAM-D-17, 21-, 25-, and 28-item scales. This instrument is completed by the clinician by using a structured interview and defined anchor points, and aims to quantify the degree of depression over the past 7 days. The HAM-D is the most widely studied instrument for depression, and its reliability and validity are high. • (4) Clinical Global Impressions-Severity and Improvement (CGI-S, CGI-I): These two instruments are scored 1-7 by the clinician based on assessment of the patient's clinical status. They measure, based on history and scores on other instruments: a) Depressive severity (CGI-S) and b) Clinical Improvement (CGI-I). […] Safety Measurements […]

The mark [1] stands for this setting: 15 mg/day adjunct to SSRI, Phase 1.
Where [2] appears, read: 15 mg/day adjunct to SSRI, Phase 2 (Phase 1 completers/non-responders only).
Setting [3] is: 15 mg/day adjunct to SSRI, pooled Phases 1 and 2 (SPCD).

Each structure is given as a SMILES string. Where two headings read alike, the source gives them in different places.

Consider `CN1c2c(nc(N)[nH]c2=O)NC[C@@H]1CNc1ccc(C(=O)N[C@@H](CCC(=O)O)C(=O)O)cc1` [6(S)-5-MTHF, 6(S)-5-methyltetrahydrofolate], for which, under setting [1], the “CGI-S Mean score reduction (SD)” value is reported as −1.3 (0.9), the “HDRS-17 % Remission” value is reported as 15.7% (3), the “HDRS-17 % Response” value is 38.8% (7) and the “HDRS-17 Mean score reduction (SD)” value was −7.5 (5.0). Further, under setting [1], the “QIDS-SR % Remission” value is given as 21.0% (4), the “QIDS-SR % Responsive” value is given as 36.8% (7) and the “QIDS-SR Mean score reduction (SD)” value is listed as −8.1 (5.3). Besides, under setting [2], the “CGI-S Mean score reduction (SD)” value was −0.5 (1.0), the “HDRS-17 % Remission” value is on record as 11.1% (2), the “HDRS-17 % Response” value is reported as 27.7% (5) and the “HDRS-17 Mean score reduction (SD)” value is reported as −3.8 (6.2). In addition, under setting [2], the “QIDS-SR % Remission” value was 8.5% (1), the “QIDS-SR % Responsive” value is on record as 11.1% (2) and the “QIDS-SR Mean score reduction (SD)” value is listed as −1.3 (4.9). For the same compound, under setting [3], the “CGI-S Mean score reduction” value was −0.92, the “QIDS-SR % Remission” value was 12.3%, the “QIDS-SR % Responsive” value is listed as 23.9% and the “QIDS-SR Mean score reduction” value was −4.7. Under “SSRI + 15 mg/day, after 30 days, SPCD, FIG. 3A”, the “response rate (50% or greater reduction in HAM-D-17) vs placebo group (in words)” value is given as “higher”. Further, the “reduction in scores of HAM-D-17, QIDS-SR and CGI-S vs placebo group (in words)” value (SSRI + 15 mg/day, after 30 days, SPCD, FIG. 3B) was “greater degree of reduction”. Where the note is “SSRI + 15 mg/day, after 30 days, FIGS. 3C-3D”, the “percentage of remitters (HAM-D-17 <8 or QIDS-SR ≦5) vs placebo (in words)” value was “no significant difference”.
